The values below come from US9303165B2, “Bacteriochlorin imides” (North Carolina State University, priority 2011, dated 2016).

Read-outs that look alike come from different tables or passages of the source.

Data set [1] can be described thus: Static absorption spectra (Qy(0,0) band). Type of data set: physicochemical. The note with it: for λQy abs: Qy(0,0) absorption band, in toluene at room temperature; for λQy/IB: ratio of the peak intensities of the Qy(0,0) and B bands, toluene, room temperature. On the procedure:
(§1) Static absorption and fluorescence measurements were performed as described previously.^69,70 Argon-purged solutions of the samples in toluene with an absorbance of ≦0.10 at the excitation wavelength were used for the fluorescence spectral, quantum yield, and lifetime measurements. Fluorescence lifetimes were obtained using a phase modulation technique and Soret-band excitation^70 or via decay measurements using Soret-region excitation pulses obtained from a nitrogen-pumped dye laser and time-correlated-single-photon-counting detection. Emission measurements employed 2-4 nm excitation- and detection-monochromator bandwidths and 0.2 nm data intervals. Emission spectra were corrected for detection-system spectral response.

Data set [2] is described as follows: Static fluorescence spectra and fluorescence quantum yield. Type of data set: physicochemical. The note with it: for λQy em: Qy(0,0) emission band, in toluene at room temperature; for Φf fluorescence quantum yield: toluene, room temperature, argon-purged, error ± 7%. The procedure: as §1
Data set [3] in a line: Singlet excited-state lifetime by fluorescence techniques. Format: physicochemical. The note with it: toluene, room temperature; error ± 7%. On the procedure: as §1
For data set [4] the following is noted: cited from earlier work.
For data set [5] the following is noted: organic solvents; cited from earlier work.
For data set [6] the following is noted: cited from earlier work. This is another data set of the same source.

On to `COc1c2nc(cc3cc(C(C)=O)c(cc4nc(cc5cc(C(C)=O)c1[nH]5)C(C)(C)C4)[nH]3)C(C)(C)C2` [MeOBC-A, 3,13-Diacetyl-5-methoxy-8,8,18,18-tetramethylbacteriochlorin], for which, in data set [1], the λQy abs is reported as 740 nm and the λQy/IB amounted to 0.96. Further, in data set [2], the λQy em is recorded as 747 nm and the “Φf fluorescence quantum yield” value stood at 0.14. The “τs lifetime of the lowest singlet excited state” value (shortened to “τs lifetime”) in data set [3] was 3.8 ns.
For the compound `CCOC(=O)c1c(CC)c2cc3nc(c4c5[nH]c(cc6nc(cc1[nH]2)CC6(C)C)c(CC)c5C(=O)N(Cc1ccccc1)C4=O)CC3(C)C` [HBC-I, 15^2-N-Benzyl-3-ethoxycarbonyl-2,12-diethyl-8,8,18,18-tetramethylbacteriochlorin-13,15-dicarboximide], in data set [1], the λQy abs is 818 nm and the λQy/IB stood at 1.3. In addition, in data set [2], the λQy em came to 823 nm and the “Φf fluorescence quantum yield” value is given as 0.036. Further, the “Stokes shift (fluorescence Qy(0,0) to longer wavelength than absorption Qy(0,0))” value (“Stokes shift” below) in data set [2] (in toluene) was ~5 nm. In addition, in data set [3], the “τs lifetime” value was determined as 1.9 ns.
Turning to `CC[C@H]1c2cc3[nH]c4c(c3C)C(=O)[C@H](C(=O)OC)c4c3nc(cc4[nH]c(cc(n2)[C@@H]1C)c(C(C)=O)c4C)[C@@H](C)[C@@H]3CCC(=O)OC/C=C(\C)CCC[C@H](C)CCC[C@H](C)CCCC(C)C` [BPh-a, Bacteriopheophytin a], in data set [1], the λQy abs is recorded as 758 nm and the λQy/IB came to 0.69. In addition, in data set [2], the λQy em is 768 nm and the “Φf fluorescence quantum yield” value came out at 0.10. In data set [3], the “τs lifetime” value was found to be 2.7 ns. Besides, the “Qy(0,0) absorption” value in data set [4] (hydrocarbon / organic solvents) is recorded as 750-760 nm. The “average singlet excited-state lifetime” value in data set [5] is on record as 2.0-2.7 ns.
`CC1(C)Cc2cc3ccc(cc4nc(cc5ccc(cc1n2)[nH]5)CC4(C)C)[nH]3` [HBC]: in data set [1], the λQy abs came out at 713 nm and the λQy/IB amounted to 0.85. Further, in data set [2], the λQy em worked out at 716 nm and the “Φf fluorescence quantum yield” value came out at 0.17. Further, in data set [3], the “τs lifetime” value worked out at 4.0 ns.
The corresponding values for `COc1c2nc(cc3ccc(cc4nc(cc5ccc1[nH]5)C(C)(C)C4)[nH]3)C(C)(C)C2` [MeOBC] are 709 nm, 0.87, 711 nm, 0.25 and 5.0 ns.
For `C=Cc1c(C)c2cc3nc(c4c5[n-]c(cc6nc(cc1[n-]2)C(C)=C6CC)c(C)c5C(=O)[C@@H]4C(=O)OC)[C@@H](CCC(=O)OC/C=C(\C)CCC[C@H](C)CCC[C@H](C)CCCC(C)C)[C@@H]3C.[Mg+2]` [chlorophyll a], the “Φf of quantum yield standard” value in data set [2] (in toluene) was “same value as in benzene”; in data set [6] (in benzene) it was 0.325.
Take `CC(=O)O[C@@H]1C[C@@H](O)[C@@H](C)OC1[C@]1(C)C(=O)c2cc3cc(C)c(cc4nc(cc5[nH]c(cc1n2)cc5C)C(=O)[C@@]4(C)C1O[C@H](C)[C@H](O)C[C@H]1OC(C)=O)[nH]3` (some centres unmarked) [tolyporphin A]: in data set [4], the absorption wavelength is on record as 678 nm.
As for `CC[C@H]1c2cc3[nH]c4c(c5nc(cc6[nH]c(cc(n2)[C@@H]1C)c(C(C)=O)c6C)[C@@H](C)[C@@H]5CCC(=O)OC)CC(=O)c4c3C` [methyl bacteriopyropheophorbide a], the “Qy(0,0) absorption” value in data set [4] (in CH2Cl2) is on record as 754 nm.
Take `COc1c2nc(cc3[nH]c4c(c5nc(cc6[nH]c1c(C(C)=O)c6C)C(C)(C)C5)CC(=O)c4c3C)C(C)(C)C2` [MeOBOP, 3-Acetyl-5-methoxy-2,8,8,12,18,18-hexamethylbacterio-13^1-oxophorbine]: in data set [1], the λQy abs was 733 nm and the λQy/IB amounted to 0.93. Further, in data set [2], the λQy em came to 739 nm and the “Φf fluorescence quantum yield” value is recorded as 0.19. Further, the “Stokes shift” value in data set [2] (in toluene) is listed as ~5 nm. Further, the “τs lifetime” value in data set [3] was determined as 4.6 ns.
For `C1=Cc2nc1c(-c1ccccc1)c1ccc([nH]1)c(-c1ccccc1)c1nc(c(-c3ccccc3)c3ccc([nH]3)c2-c2ccccc2)C=C1` [free base tetraphenylporphyrin], the “Φf of quantum yield standard” value in data set [6] (free base) is reported as 0.090.
Turning to `CC(=O)c1cc2cc3nc(cc4[nH]c(cc5nc(cc1[nH]2)CC5(C)C)cc4C(C)=O)CC3(C)C` [HBC-A], in data set [1], the λQy abs came out at 768 nm and the λQy/IB came out at 1.2. Further, in data set [2], the λQy em came out at 771 nm and the “Φf fluorescence quantum yield” value was 0.11. Besides, in data set [3], the “τs lifetime” value is 2.9 ns.
On the same counts, the results for `COc1c2nc(cc3[nH]c(cc4nc(cc5[nH]c1c(C(C)=O)c5C)C(C)(C)C4)c(C(C)=O)c3C)C(C)(C)C2` [MeOBC-MeA, 3,13-Diacetyl-5-methoxy-2,8,8,12,18,18-hexamethylbacteriochlorin] are 743 nm, 0.95, 749 nm, 0.13 and 3.4 ns.
As for `CCOC(=O)c1c(CC)c2cc3nc(c(OC)c4[nH]c(cc5nc(cc1[nH]2)CC5)c(CC)c4C(=O)OCC)CC3` [MeOBC-EtEs, 2,12-diethyl-3,13-diethoxycarbonyl-5-methoxybacteriochlorin], in data set [1], the λQy abs is 739 nm and the λQy/IB is 1.1. Moreover, in data set [2], the λQy em turned out to be 749 nm and the “Φf fluorescence quantum yield” value was 0.17. For the same compound, in data set [2] (in toluene), the “Stokes shift” value is reported as ~15 nm. Further, the “τs lifetime” value in data set [3] was determined as 4.3 ns.
In the case of `CC(=O)c1c(C)c2cc3nc(cc4[nH]c(cc5nc(cc1[nH]2)CC5(C)C)c(C)c4C(C)=O)CC3(C)C` [HBC-MeA, 3,13-Diacetyl-2,8,8,12,18,18-hexamethylbacteriochlorin], the λQy abs in data set [1] amounted to 766 nm.
Turning to `CCOC(=O)c1c(CC)c2cc3nc(c4c5[nH]c(cc6nc(c(OC)c1[nH]2)CC6(C)C)c(CC)c5C(=O)N(Cc1ccccc1)C4=O)CC3(C)C` [MeOBC-I, 15^2-N-Benzyl-3-ethoxycarbonyl-2,12-diethyl-5-methoxy-8,8,18,18-tetramethyl-bacteriochlorin-13,15-dicarboximide], in data set [1], the λQy abs stood at 793 nm and the λQy/IB is 1.0. In data set [2], the λQy em is 798 nm and the “Φf fluorescence quantum yield” value is 0.052. Further, the “Stokes shift” value in data set [2] (in toluene) is ~5 nm. For the same compound, the “τs lifetime” value in data set [3] is 2.2 ns.
